Data reported in patent US11564955B2, “Composition including, as active ingredient, strain having ability to produce formic acid for preventing or treating obesity or metabolic syndromes caused by obesity” (KOREA FOOD RESEARCH INSTITUTE, priority 2016, dated 2023).

Tested on: high-fat diet-induced obesity animal models
Settings: oral formate vs high-fat diet control group
From the text: In order to investigate whether formic acid actually has an anti-obesity effect, the present inventors orally administered formate into high-fat diet-induced obesity animal models. […] The patent application procedure of the above-described contents is under way, separately from the present disclosure.

## O=CO [formate]
  blood cholesterol content: significantly reduced
  blood triglyceride content: significantly reduced
  body weight increase: inhibited
  fat cell size: decreased
  kidney fat weight value: lowered
